# Source: ChEMBL document CHEMBL3792369, “Nahuoic Acids B-E, Polyhydroxy Polyketides from the Marine-Derived Streptomyces sp. SCSGAA 0027” (2016)
# Active and inactive are the calls of the source. The calls are words filed in the database; no cut-off is given here.
# Tests used:
# [1] = system: Staphylococcus aureus; assay: Antibiofilm activity against Staphylococcus aureus assessed as inhibition of biofilm formation by crystal violet assay; format: functional, organism-based
# [2] = system: Huh-7; assay: Cytotoxicity against human HuH7 cells; format: functional, cell-based
# [3] = system: Shewanella oneidensis; assay: Antibiofilm activity against Shewanella oneidensis MR-1 assessed as inhibition of biofilm formation at 200 ug/ml by crystal violet assay; format: functional
# [4] = system: MCF7; assay: Cytotoxicity against human MCF7 cells; format: functional, cell-based
# [5] = system: HL-60; assay: Cytotoxicity against human HL60 cells; format: functional, cell-based
# [6] = molecular target: Acetylcholinesterase (Homo sapiens) (UniProt P22303); assay: Inhibition of acetylcholinesterase (unknown origin)
# [7] = system: K562; assay: Cytotoxicity against human K562 cells; format: functional, cell-based
# [8] = system: Staphylococcus aureus; assay: Antibacterial activity against Staphylococcus aureus; format: functional, organism-based
# [9] = system: Shewanella oneidensis; assay: Antibacterial activity against Shewanella oneidensis MR-1; format: functional
# [10] = system: NCI-H1975; assay: Cytotoxicity against human NCI-H1975 cells; format: functional, cell-based
# [11] = system: BGC-823; assay: Cytotoxicity against human BGC823 cells; format: functional, cell-based
# Acetylcholinesterase (Homo sapiens), sequence (P22303 whole entry): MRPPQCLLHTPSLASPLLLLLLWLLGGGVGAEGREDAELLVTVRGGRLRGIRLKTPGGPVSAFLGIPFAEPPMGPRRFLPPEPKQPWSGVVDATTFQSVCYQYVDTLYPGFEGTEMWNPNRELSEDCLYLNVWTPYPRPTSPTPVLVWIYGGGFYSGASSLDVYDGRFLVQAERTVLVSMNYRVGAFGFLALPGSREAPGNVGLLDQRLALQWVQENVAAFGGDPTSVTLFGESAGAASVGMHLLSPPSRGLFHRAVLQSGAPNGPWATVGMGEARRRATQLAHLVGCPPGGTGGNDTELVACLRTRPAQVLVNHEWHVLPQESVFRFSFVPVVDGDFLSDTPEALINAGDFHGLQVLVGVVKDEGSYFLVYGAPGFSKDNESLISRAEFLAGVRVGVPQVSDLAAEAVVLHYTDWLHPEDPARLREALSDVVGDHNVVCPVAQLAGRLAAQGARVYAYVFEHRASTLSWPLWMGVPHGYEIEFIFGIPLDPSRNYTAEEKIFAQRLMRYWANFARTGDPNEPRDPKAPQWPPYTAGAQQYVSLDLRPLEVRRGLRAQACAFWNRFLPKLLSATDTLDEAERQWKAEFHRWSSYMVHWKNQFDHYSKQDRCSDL
SMILES,Activity [1],Activity [2],inhibition at 200 µg/mL [3] [%],Activity [4],Activity [5],inhibition [6],Activity [7],Activity [8],Activity [9],Activity [10],Activity [11]
CC1=C[C@@]2(C)[C@H]([C@@H](C)[C@H](O)C[C@H]2O)[C@@H](/C=C(\C)C(=O)O)[C@@H]1/C(C)=C/C[C@H](O)C[C@@H](O)C[C@@H](O)[C@H](C)[C@@H](O)C(C)C,inactive,inactive,91,inactive,inactive,inactive,inactive,inactive,inactive,inactive,inactive
CC1=C[C@@]2(C)[C@@H]([C@@H](/C=C(\C)C(=O)O)[C@@H]1/C(C)=C/C[C@H](O)C[C@@H](O)C[C@@H](O)[C@H](C)[C@@H](O)C(C)C)[C@@H](C)CC[C@H]2O,inactive,inactive,95,inactive,inactive,inactive,inactive,inactive,inactive,inactive,inactive
CC1=C[C@@]2(C)[C@H]([C@@H](C)[C@H](O)C[C@H]2O)[C@@H](/C=C(\C)C(=O)O)[C@@H]1/C(C)=C/C[C@H](O)C[C@@H](O)[C@H](C)[C@@H](O)C(C)C,inactive,inactive,98,inactive,inactive,inactive,inactive,inactive,inactive,inactive,inactive
CC1=C[C@@]2(C)[C@@H]([C@@H](/C=C(\C)C(=O)O)[C@@H]1/C(C)=C/C[C@H](O)C[C@@H](O)[C@H](C)[C@@H](O)C(C)C)[C@@H](C)CC[C@H]2O,inactive,inactive,94,inactive,inactive,inactive,inactive,inactive,inactive,inactive,inactive
CC1=C[C@@]2(C)[C@H]([C@@H](C)[C@H](O)[C@H](O)[C@H]2O)[C@@H](/C=C(\C)C(=O)O)[C@@H]1/C(C)=C/C[C@H](O)C[C@@H](O)[C@H](C)[C@@H](O)C(C)C,inactive,inactive,63,inactive,inactive,inactive,inactive,inactive,inactive,inactive,inactive
